Laboratory results as given in ChEMBL document CHEMBL1201862, “PubChem BioAssay data set” (2004).
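Protocol summary: plate cells (96-well), add compound at 5 concentrations, incubate 48 h, interpolate endpoints linearly. GI50 = concentration required for 50% inhibition of growth.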 Active and inactive are the calls of the source. Cut-off read from the data, not from the text of the source: active = GI50 up to about 1.1 µM and inactive = higher.

Assays:
Experiment in all cases: NCI tumour cell line growth inhibition, 48 h
A498 = system: A498
ACHN = system: ACHN
HCC 2998 = system: HCC 2998
HL-60 = system: HL-60
HOP-92 = system: HOP-92
Hs-578T = system: Hs-578T
KM12 = system: KM12
MCF7 = system: MCF7
MDA-MB-231 = system: MDA-MB-231
MDA-MB-435 = system: MDA-MB-435
NCI-H23 = system: NCI-H23
NCI-H460 = system: NCI-H460
PC-3 = system: PC-3
RPMI-8226 = system: RPMI-8226
SF-268 = system: SF-268
SK-MEL-28 = system: SK-MEL-28
SN12C = system: SN12C
SNB-19 = system: SNB-19
TK-10 = system: TK-10
UACC-62 = system: UACC-62

Compound | GI50 (A498) | GI50 (ACHN) | GI50 (HCC 2998) | GI50 (HL-60) | GI50 (HOP-92) | GI50 (Hs-578T) | GI50 (KM12) | GI50 (MCF7) | GI50 (MDA-MB-231) | GI50 (MDA-MB-435) | GI50 (NCI-H23) | GI50 (NCI-H460) | GI50 (PC-3) | GI50 (RPMI-8226) | GI50 (SF-268) | GI50 (SK-MEL-28) | GI50 (SN12C) | GI50 (SNB-19) | GI50 (TK-10) | GI50 (UACC-62)
OC(c1ccc(F)cc1)(c1ccc(F)cc1)C1CC1 | 29.2 µM (inactive) | 30.1 µM (inactive) | 20.5 µM (inactive) | 21.3 µM (inactive) | 33.8 µM (inactive) | 26.9 µM (inactive) | 26.7 µM (inactive) | 35.7 µM (inactive) | 36.1 µM (inactive) | 23 µM (inactive) | 17.5 µM (inactive) | 29 µM (inactive) | 20 µM (inactive) | 26.9 µM (inactive) | 32.2 µM (inactive) | 30 µM (inactive) | 20.9 µM (inactive) | 42.8 µM (inactive) | 30.7 µM (inactive) | 23.9 µM (inactive)
Cc1cc(C(=O)CSC(=S)SC(C)(C)C)ccc1Cl | 16.3 µM (inactive) | 25 µM (inactive) | 16.7 µM (inactive) | 18.4 µM (inactive) | 24.8 µM (inactive) | 25.5 µM (inactive) | 20 µM (inactive) | 25.6 µM (inactive) | 19.7 µM (inactive) | 23.7 µM (inactive) | 29.5 µM (inactive) | 14.7 µM (inactive) | 29.8 µM (inactive) | 21.9 µM (inactive) | 18.2 µM (inactive) | 19.8 µM (inactive) | 18.2 µM (inactive) | 16 µM (inactive) | 25.2 µM (inactive) | 16.1 µM (inactive)
COc1cc(C(C)=O)cc(C(=O)N(C(C)C)C(C)C)c1[Si](C)(C)C | > 100 µM (inactive) | > 100 µM (inactive) |  | 24.3 µM (inactive) | 99.3 µM (inactive) | > 100 µM (inactive) | > 100 µM (inactive) | > 100 µM (inactive) | > 100 µM (inactive) | > 100 µM (inactive) | 52.8 µM (inactive) | > 100 µM (inactive) | > 100 µM (inactive) |  | > 100 µM (inactive) | > 100 µM (inactive) |  | > 100 µM (inactive) | > 100 µM (inactive) | > 100 µM (inactive)
CC1=CC(=O)[C@@H](O)[C@]2(C)[C@H]3[C@@]4(O)OC[C@@]35[C@@H](C[C@@H]12)OC(=O)C(OC(=O)CC1=CCCC1)[C@H]5[C@@H](C)[C@H]4O (stereo not given in full) | 0.429 µM (active) | 0.0344 µM (active) | 0.04 µM (active) | < 0.0168 µM (active) | 0.0548 µM (active) | 0.0272 µM (active) | 0.0256 µM (active) | < 0.0142 µM (active) | 0.0559 µM (active) | 0.0404 µM (active) | 0.0187 µM (active) | 0.023 µM (active) | 0.0311 µM (active) | < 0.0124 µM (active) | 0.0345 µM (active) | 0.0204 µM (active) | 0.0481 µM (active) | 0.0344 µM (active) | 0.0408 µM (active) | 0.0383 µM (active)
C=C(C(=O)O)[C@@H]1C[C@@H]2O[C@H]1CC(C)=CCC/C(C)=C/CC[C@@]2(C)O | > 100 µM (inactive) | > 100 µM (inactive) | > 100 µM (inactive) | > 100 µM (inactive) | 93.5 µM (inactive) | > 100 µM (inactive) | > 100 µM (inactive) | > 100 µM (inactive) | > 100 µM (inactive) | > 100 µM (inactive) |  | > 100 µM (inactive) | > 100 µM (inactive) | > 100 µM (inactive) | > 100 µM (inactive) | > 100 µM (inactive) | > 100 µM (inactive) | > 100 µM (inactive) | > 100 µM (inactive) | > 100 µM (inactive)
CCOC(=O)C1(C(=O)OCC)C[C@@H](C)[C@@H](O)C1 | > 100 µM (inactive) | > 100 µM (inactive) |  | 89.9 µM (inactive) | > 100 µM (inactive) | > 100 µM (inactive) | > 100 µM (inactive) | > 100 µM (inactive) | > 100 µM (inactive) | > 100 µM (inactive) | > 100 µM (inactive) | > 100 µM (inactive) | > 100 µM (inactive) | > 100 µM (inactive) | > 100 µM (inactive) | > 100 µM (inactive) | > 100 µM (inactive) | > 100 µM (inactive) | > 100 µM (inactive) | > 100 µM (inactive)
Cc1ccc(S(=O)(=O)NC(=O)NCC(=O)NCC(=O)O)cc1 | > 100 µM (inactive) | > 100 µM (inactive) | > 100 µM (inactive) | > 100 µM (inactive) | > 100 µM (inactive) | > 100 µM (inactive) | > 100 µM (inactive) | > 100 µM (inactive) | > 100 µM (inactive) | > 100 µM (inactive) | > 100 µM (inactive) | > 100 µM (inactive) | > 100 µM (inactive) | > 100 µM (inactive) | > 100 µM (inactive) | > 100 µM (inactive) |  | > 100 µM (inactive) | > 100 µM (inactive) | > 100 µM (inactive)
Clc1ccc2c(NCCCC/N=C/c3ccccc3)ccnc2c1 | 3.01 µM (inactive) | 12.5 µM (inactive) | 14.5 µM (inactive) |  | 5.52 µM (inactive) | 11.6 µM (inactive) | 7.98 µM (inactive) | 11.1 µM (inactive) | 13.6 µM (inactive) | 12.6 µM (inactive) | 11 µM (inactive) | 11 µM (inactive) | 10.4 µM (inactive) | 18.1 µM (inactive) | 14.2 µM (inactive) | 15 µM (inactive) | 5.69 µM (inactive) | 14.8 µM (inactive) | 18.6 µM (inactive) | 
CN(CCc1ccccn1)c1ccc2c(c1)C(=O)c1ccccc1-2 | 35.2 µM (inactive) | > 100 µM (inactive) | > 100 µM (inactive) |  | 15.2 µM (inactive) | 73.3 µM (inactive) | > 100 µM (inactive) | > 100 µM (inactive) | > 100 µM (inactive) | > 100 µM (inactive) | > 100 µM (inactive) | 9.68 µM (inactive) | > 100 µM (inactive) | 38.3 µM (inactive) | > 100 µM (inactive) | > 100 µM (inactive) | 53.8 µM (inactive) | 88.9 µM (inactive) | > 100 µM (inactive) | 46.1 µM (inactive)
CCOC(=O)c1cc(C)nc2c1c(=O)n(-c1ccccc1)c(=O)n2CCCCN1CCN(c2ccccc2)CC1 | 27.6 µM (inactive) | 58.1 µM (inactive) | 41.1 µM (inactive) | 27 µM (inactive) | > 100 µM (inactive) | > 100 µM (inactive) | 61.8 µM (inactive) | 28.3 µM (inactive) | 48.1 µM (inactive) | > 100 µM (inactive) | 77.3 µM (inactive) |  | 47.9 µM (inactive) | 15.7 µM (inactive) | > 100 µM (inactive) | > 100 µM (inactive) | 49.9 µM (inactive) |  | > 100 µM (inactive) | 70.3 µM (inactive)
CCCCCCCCCCCCOP(=O)(O)OCC(N)C(=O)O (stereo not given) | 24.6 µM (inactive) | 34.1 µM (inactive) | 29.8 µM (inactive) | 17.4 µM (inactive) | 20.5 µM (inactive) | 10.3 µM (inactive) |  | 39.3 µM (inactive) | 23.9 µM (inactive) | 18.2 µM (inactive) | 29.9 µM (inactive) | 13.6 µM (inactive) | 15.3 µM (inactive) | 24.7 µM (inactive) | 26.8 µM (inactive) | 94.8 µM (inactive) | 22.1 µM (inactive) | 16.3 µM (inactive) | 24.7 µM (inactive) | 
Cc1[nH]c2ncn3ncnc3c2c1Cc1ccccc1 | > 100 µM (inactive) | > 100 µM (inactive) | > 100 µM (inactive) | > 100 µM (inactive) | 54.1 µM (inactive) | > 100 µM (inactive) | > 100 µM (inactive) | > 100 µM (inactive) | > 100 µM (inactive) | > 100 µM (inactive) | 91.6 µM (inactive) | > 100 µM (inactive) | > 100 µM (inactive) |  | > 100 µM (inactive) | > 100 µM (inactive) | > 100 µM (inactive) | > 100 µM (inactive) | > 100 µM (inactive) | > 100 µM (inactive)
CC1CC(C)CC(C)C(O)/C(C#N)=C/C=C/CC(C2CCCC2C(=O)O)OC(=O)CC(O)C(C)C1 (stereo not given) | 0.0105 µM (active) | < 0.0194 µM (active) | 0.0151 µM (active) | 0.0137 µM (active) | < 0.01 µM (active) | < 0.01 µM (active) |  | 0.0102 µM (active) | < 0.0109 µM (active) | < 0.01 µM (active) |  | 0.0284 µM (active) | 0.0251 µM (active) | < 0.0305 µM (active) | 0.0133 µM (active) | < 0.0111 µM (active) | 0.029 µM (active) | 0.0135 µM (active) | 0.0301 µM (active) | 0.0101 µM (active)
S=C1NC2=C(COc3ccccc32)C(c2ccc(Cl)cc2)N1 (stereo not given) | 18.1 µM (inactive) | 22.9 µM (inactive) |  | 13.9 µM (inactive) | > 10 µM (inactive) | 21.6 µM (inactive) | 16.2 µM (inactive) | 19.1 µM (inactive) | 17.4 µM (inactive) | 24 µM (inactive) | 21.7 µM (inactive) |  | 13.4 µM (inactive) | 5.78 µM (inactive) | 17.6 µM (inactive) | 21.9 µM (inactive) | 2.54 µM (inactive) | 22.9 µM (inactive) |  | 17.4 µM (inactive)
CSc1ncnc2c1cnn2Cc1cn(CCCCO)nn1 | > 100 µM (inactive) | > 100 µM (inactive) | > 100 µM (inactive) |  | > 100 µM (inactive) | 71.1 µM (inactive) | > 100 µM (inactive) | > 100 µM (inactive) | > 100 µM (inactive) | > 100 µM (inactive) | > 100 µM (inactive) | > 100 µM (inactive) | > 100 µM (inactive) | > 100 µM (inactive) | > 100 µM (inactive) | > 100 µM (inactive) | > 100 µM (inactive) | > 100 µM (inactive) | > 100 µM (inactive) | > 100 µM (inactive)
